This assay addresses T1, human ENPP1 (Homo sapiens, UniProt P22413).
T1 construct: made in house
T1 sequence (P22413 1-925): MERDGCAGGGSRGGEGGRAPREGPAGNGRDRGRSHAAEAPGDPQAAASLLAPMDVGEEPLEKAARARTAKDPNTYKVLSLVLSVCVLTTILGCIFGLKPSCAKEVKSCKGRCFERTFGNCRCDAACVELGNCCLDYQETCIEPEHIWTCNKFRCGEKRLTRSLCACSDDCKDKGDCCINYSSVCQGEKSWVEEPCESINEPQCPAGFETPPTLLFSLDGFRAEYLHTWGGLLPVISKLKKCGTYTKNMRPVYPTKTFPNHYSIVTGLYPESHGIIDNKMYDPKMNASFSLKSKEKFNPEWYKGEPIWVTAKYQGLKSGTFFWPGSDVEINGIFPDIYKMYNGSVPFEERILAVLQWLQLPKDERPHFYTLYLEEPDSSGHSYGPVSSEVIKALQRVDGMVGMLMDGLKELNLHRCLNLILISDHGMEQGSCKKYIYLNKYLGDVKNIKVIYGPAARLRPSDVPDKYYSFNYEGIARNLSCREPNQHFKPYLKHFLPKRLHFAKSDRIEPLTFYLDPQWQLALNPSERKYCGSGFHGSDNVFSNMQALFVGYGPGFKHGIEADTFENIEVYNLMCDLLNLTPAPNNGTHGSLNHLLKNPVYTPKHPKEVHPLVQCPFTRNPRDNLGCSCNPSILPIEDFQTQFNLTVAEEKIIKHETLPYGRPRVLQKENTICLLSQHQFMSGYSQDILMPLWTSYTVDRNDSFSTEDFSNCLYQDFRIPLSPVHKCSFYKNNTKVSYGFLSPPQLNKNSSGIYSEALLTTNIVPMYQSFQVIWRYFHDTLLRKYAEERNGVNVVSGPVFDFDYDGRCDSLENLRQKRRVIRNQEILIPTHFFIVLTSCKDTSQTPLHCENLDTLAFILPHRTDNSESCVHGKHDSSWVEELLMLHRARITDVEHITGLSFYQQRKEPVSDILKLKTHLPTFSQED
In words: ENPP1 assay with ATP substrate (Transcreener AMP2/GMP2 TR-FRET). Format: biochemical. To be noted: 1 hour at room temperature. An excerpt: Example B1: ENPP1 Assay with ATP Substrate
Ectonucleotide pyrophosphatase/phosphodiesterase 1 (ENPP1) hydrolyzes ATP, breaking it down into 5′-AMP and pyrophosphate. The 5′-AMP formed from the reaction is detected by Transcreener® AMP2/GMP2 TR-FRET Assay (Bellbrook), containing AMP-tracer (HiLyte 647) and anti-AMP Terbium (Tb) donor. 5′-AMP generated in the reaction competes with AMP-tracer for binding with Anti-AMP Tb donor, and decreases TR-FRET signal.
Different concentrations of ENPP1 inhibitors are added to dry assay plate, followed by 2 μl 300 nM ATP. The reaction is initiated with the addition of 2 μl 8.5 μM human ENPP1 (generated by SBP Protein group). The assay reaction mixture contains a buffer of 50 mM Tris, pH 7.5, 1 mM TCEP, 2 mM MgCl2, 0.005% Tween 20, and 1% DMSO. The reaction is stopped after 1 hour at room temperature by adding 2 μL of 2 nM AMP-tracer and 2 μl of 2 nM Anti-AMP Tb donor in the 50 mM Tris, pH 7.5, buffer containing 20 mM EDTA and 0.1% Prionex. After 2 hour additional incubation at room temperature, the generated signal is measured using BMG Lab PHERASTAR instrument. 100% activity control samples (containing enzyme, substrate, buffer: MAX) and no enzyme control samples (containing substrate and buffer: MIN) are utilized to calculate percent inhibition (%) for each compound concentration well (COMPOUND) as follows.
The IC50 values are determined by fitting the inhibition curves with 2-parameter variable slope model in Graphpad Prism software using percent inhibition vs compound concentration data: […]
A general note: Time-resolved FRET reads energy transfer from a long-lived donor to a nearby acceptor.
The term IC50 denotes the concentration needed to halve the response being measured. High values mean weaker potency in that assay, low ones greater potency in that assay. Compound `c1ccc(-c2csc3nc(-c4ccccn4)nc(NCc4ccccn4)c23)cc1` [Example 1.2, (5-Phenyl-2-pyridin-2-yl-thieno[2,3-d]pyrimidin-4-yl)-pyridin-2-ylmethyl-amine] displayed a half-maximal inhibitory concentration (IC50) of over 20 µM.

`NS(=O)(=O)c1cccc(CNc2nc(-c3ccccn3)nc3scc(-c4ccccc4)c23)c1` [Example 1.12, 3-[(5-Phenyl-2-pyridin-2-yl-thieno[2,3-d]pyrimidin-4-ylamino)-methyl]-benzenesulfonamide] yielded an IC50 of 1 to 20 µM.

`Cn1ncc(CNc2nc(-c3ccccn3)nc3scc(-c4ccccc4)c23)c1N` [Example 1.34, (5-Amino-1-methyl-1H-pyrazol-4-ylmethyl)-(5-phenyl-2-pyridin-2-yl-thieno[2,3-d]pyrimidin-4-yl)-amine] registered an IC50 of 1 to 20 µM.

For `c1ccc(-c2csc3nc(-c4ccccn4)nc(NCc4ccco4)c23)cc1` [Example 1.35, Furan-2-ylmethyl-(5-phenyl-2-pyridin-2-yl-thieno[2,3-d]pyrimidin-4-yl)-amine], the half-inhibitory concentration (IC50) was in the range of 1 to 20 µM.

In the case of `CN(c1nc(-c2ccccn2)nc2scc(-c3ccccc3)c12)C1CCCC1` [Example 1.36, Cyclopentyl-methyl-(5-phenyl-2-pyridin-2-yl-thieno[2,3-d]pyrimidin-4-yl)-amine], the concentration for half-maximal inhibition (IC50) is over 20 µM.

For the compound `Cc1csc2nc(-c3ccccn3)nc(NCc3ccc(S(N)(=O)=O)s3)c12` [Example 1.37, 5-(((5-Methyl-2-(pyridin-2-yl)thieno[2,3-d]pyrimidin-4-yl)amino)methyl)thiophene-2-sulfonamide], the IC50 was over 20 µM.

Regarding `Cn1ncc2c(NCc3ccc(S(N)(=O)=O)cc3)nc(-c3ccccc3)nc21` [Example 2, 4-(((1-Methyl-6-phenyl-1H-pyrazolo[3,4-d]pyrimidin-4-yl)amino)methyl)-benzenesulfonamide], the IC50 was 1 to 20 µM.

`Cn1ncc2c(NCc3ccccc3)nc(-c3ccccn3)nc21` [Example 2.9, N-Benzyl-1-methyl-6-(pyridin-2-yl)-1H-pyrazolo[3,4-d]pyrimidin-4-amine]: the IC50 was over 20 µM.

As for `COc1ccc(CNc2nc(-c3ccccn3)nc3c2cnn3C)cc1` [Example 2.11, N-(4-Methoxybenzyl)-1-methyl-6-(pyridin-2-yl)-1H-pyrazolo[3,4-d]pyrimidin-4-amine], the IC50 is over 20 µM.

Take `Cn1ncc2c(NCc3cccc(F)c3)nc(-c3ccccn3)nc21` [Example 2.12, N-(3-Fluorobenzyl)-1-methyl-6-(pyridin-2-yl)-1H-pyrazolo[3,4-d]pyrimidin-4-amine]: the IC50 is over 20 µM.

`Cn1ncc2c(NCc3ccc(Cl)cc3)nc(-c3ccccn3)nc21` [Example 2.13, N-(4-Chlorobenzyl)-1-methyl-6-(pyridin-2-yl)-1H-pyrazolo[3,4-d]pyrimidin-4-amine]: the IC50 was over 20 µM.

The compound `Cn1ncc2c(NCc3ccc(S(N)(=O)=O)cc3)nc(-c3cccnc3)nc21` [Example 2.15, 4-(((1-Methyl-6-(pyridin-3-yl)-1H-pyrazolo[3,4-d]pyrimidin-4-yl)amino)methyl)-benzenesulfonamide] returned an IC50 of 1 to 20 µM.

Consider `Cn1ncc2c(NCc3ccc(S(N)(=O)=O)cc3)nc(-c3ccncc3)nc21` [Example 2.16, 4-(((1-Methyl-6-(pyridin-4-yl)-1H-pyrazolo[3,4-d]pyrimidin-4-yl)amino)methyl)-benzenesulfonamide], for which the IC50 was over 20 µM.

In turn, `Cn1ncc2c(NCc3ccncc3)nc(-c3ccccn3)nc21` [Example 2.17, 1-Methyl-6-(pyridin-2-yl)-N-(pyridin-4-ylmethyl)-1H-pyrazolo[3,4-d]pyrimidin-4-amine] registered an IC50 of 1 to 20 µM.

Regarding `Cn1ncc2c(NCc3cccnc3)nc(-c3ccccn3)nc21` [Example 2.18, 1-Methyl-6-(pyridin-2-yl)-N-(pyridin-3-ylmethyl)-1H-pyrazolo[3,4-d]pyrimidin-4-amine], the IC50 is over 20 µM.

With `Cn1ncc2c(NCc3ccccn3)nc(-c3ccccn3)nc21` [Example 2.19, 1-Methyl-6-(pyridin-2-yl)-N-(pyridin-2-ylmethyl)-1H-pyrazolo[3,4-d]pyrimidin-4-amine], the IC50 is over 20 µM.

On to `Cn1ncc2c(NCc3cccs3)nc(-c3ccccn3)nc21` [Example 2.21, 1-Methyl-6-(pyridin-2-yl)-N-(thiophen-2-ylmethyl)-1H-pyrazolo[3,4-d]pyrimidin-4-amine], for which the IC50 was over 20 µM.

Consider `Cc1ccc(CNc2nc(-c3ccccn3)nc3c2cnn3C)o1` [Example 2.22, 1-Methyl-N-((5-methylfuran-2-yl)methyl)-6-(pyridin-2-yl)-1H-pyrazolo[3,4-d]pyrimidin-4-amine], for which the IC50 was over 20 µM.

`Cn1ncc2c(NCc3ccco3)nc(-c3ccccn3)nc21` [Example 2.23, N-(Furan-2-ylmethyl)-1-methyl-6-(pyridin-2-yl)-1H-pyrazolo[3,4-d]pyrimidin-4-amine] came in with a concentration for half-maximal inhibition (IC50) of over 20 µM.

The compound `Cc1ccncc1/C=C/CNC1CCN(c2ncnc3c(Br)csc23)CC1` [Example 3.62, (E)-1-(7-Bromothieno[3,2-d]pyrimidin-4-yl)-N-(3-(4-methylpyridin-3-yl)allyl)piperidin-4-amine] had an IC50 of under 0.1 µM.

As for `Cc1ccncc1CCCNC1CCN(c2ncnc3ccsc23)CC1` [Example 3.63, N-(3-(4-Methylpyridin-3-yl)propyl)-1-(thieno[3,2-d]pyrimidin-4-yl)piperidin-4-amine], the IC50 lay in the range of 1 to 20 µM.

Compound `O=C(CCc1ccc(F)cc1)NC1CCN(c2ncnc3c(Cl)csc23)CC1` [Example 3.64, N-(1-(7-Chlorothieno[3,2-d]pyrimidin-4-yl)piperidin-4-yl)-3-(4-fluorophenyl)propanamide] came in with an IC50 of 1 to 20 µM.

Turning to `Cc1csc2c(N3CCC(NCCCc4ccncc4)CC3)nc(Cl)nc12` [Example 3.65, 1-(2-Chloro-7-methylthieno[3,2-d]pyrimidin-4-yl)-N-(3-(pyridin-4-yl)propyl)piperidin-4-amine], the IC50 was in the range of 1 to 20 µM.

Compound `COc1nc(N2CCC(NCCCc3ccncc3)CC2)c2scc(C)c2n1` [Example 3.66, 1-(2-Methoxy-7-methylthieno[3,2-d]pyrimidin-4-yl)-N-(3-(pyridin-4-yl)propyl)piperidin-4-amine] had an IC50 of 1 to 20 µM.

Regarding `Cc1ccncc1CCCNC1CCN(c2nc(Cl)nc3c(C)csc23)CC1` [Example 3.68, 1-(2-Chloro-7-methylthieno[3,2-d]pyrimidin-4-yl)-N-(3-(4-methylpyridin-3-yl)propyl)piperidin-4-amine], the IC50 lay in the range of 1 to 20 µM.

`CNc1nc(N2CCC(NCCCc3cnccc3C)CC2)c2scc(C)c2n1` [Example 3.69, N,7-Dimethyl-4-(4-((3-(4-methylpyridin-3-yl)propyl)amino)piperidin-1-yl)thieno[3,2-d]pyrimidin-2-amine] gave an IC50 of 1 to 20 µM.

For `COc1nc(N2CCC(NCCCc3cnccc3C)CC2)c2scc(C)c2n1` [Example 3.70, 1-(2-Methoxy-7-methylthieno[3,2-d]pyrimidin-4-yl)-N-(3-(4-methylpyridin-3-yl)propyl)piperidin-4-amine], the IC50 was in the range of 0.1 to 1 µM.

`Cc1ccncc1CCCNC1CCN(c2nc(NCCO)nc3c(C)csc23)CC1` [Example 3.71, 2-((7-Methyl-4-(4-((3-(4-methylpyridin-3-yl)propyl)amino)piperidin-1-yl)thieno[3,2-d]pyrimidin-2-yl)amino)ethanol] returned an IC50 of 0.1 to 1 µM.

Turning to `Cc1csc2c(N3CCC(NC/C=C/c4ccncc4)CC3)ncnc12` [Example 3.76, (E)-1-(7-methylthieno[3,2-d]pyrimidin-4-yl)-N-(3-(pyridin-4-yl)allyl)piperidin-4-amine], the IC50 lay within 0.1 to 1 µM.

These data come from patent publication US12643910B2, “Substituted pyrazolo[3,4-b]pyridines as ectonucleotide pyrophosphatase/phosphodiesterase 1 (ENPP1) modulators” (SANFORD BURNHAM PREBYS MEDICAL DISCOVERY INSTITUTE, priority 2019, dated 2026).
